Test results published in ChEMBL document CHEMBL1782011, “Facile synthesis, vasorelaxant properties and molecular modeling studies of 2-amino-8a-methoxy-4H-pyrano[3,2-c]pyridine-3-carbonitriles” (Eur J Med Chem, 2011).
Where a name gives a salt, the structure may show the parent alone.

Species: Rattus norvegicus
Test: Vasodilatory activity in Wistar rat thoracic aorta rings assessed as inhibition of norepinephrine hydrochloride-induced contraction
Format: functional
Compound CCN1CC[C@@]2(OC)OC(N)=C(C#N)[C@@H](c3ccc(N4CCOCC4)cc3)[C@@H]2C1 has an IC50 of 640 µM. With CCN1CC[C@@]2(OC)OC(N)=C(C#N)[C@@H](c3ccc(Cl)cc3)[C@@H]2C1 the IC50 was 400 µM. Work on CCN1CC[C@@]2(OC)OC(N)=C(C#N)[C@@H](c3ccccc3)[C@@H]2C1 yielded an IC50 of 680 µM. With COc1cc2nc(N3CCN(C(=O)c4ccco4)CC3)nc(N)c2cc1OC [PRAZOSIN HYDROCHLORIDE] the IC50 was 490 µM. With CO[C@@]12CCN(C)C[C@H]1[C@H](c1ccccc1)C(C#N)=C(N)O2 the IC50 was 720 µM. In the case of CO[C@@]12CCN(C)C[C@H]1[C@H](c1ccc(N3CCCCC3)cc1)C(C#N)=C(N)O2, the IC50 is reported as 450 µM. Work on CO[C@@]12CCN(C)C[C@H]1[C@H](c1cccs1)C(C#N)=C(N)O2 yielded an IC50 of 680 µM. CO[C@@]12CCN(C)C[C@H]1[C@H](c1ccc(N3CCOCC3)cc1)C(C#N)=C(N)O2 was tested, and the IC50 was 740 µM. With CO[C@@]12CCN(C)C[C@H]1[C@H](c1ccc(F)cc1)C(C#N)=C(N)O2 the IC50 was 520 µM. Work on CO[C@@]12CCN(C)C[C@H]1[C@H](c1ccc(C)cc1)C(C#N)=C(N)O2 yielded an IC50 of 600 µM. CO[C@@]12CCN(C)C[C@H]1[C@H](c1ccc(Cl)cc1)C(C#N)=C(N)O2 was tested, and the IC50 was 370 µM. COc1ccc([C@@H]2C(C#N)=C(N)O[C@]3(OC)CCN(C)C[C@@H]23)cc1 showed an IC50 of 300 µM. With CCN1CC[C@@]2(OC)OC(N)=C(C#N)[C@@H](c3cccs3)[C@@H]2C1 the IC50 was 490 µM. In the case of CCN1CC[C@@]2(OC)OC(N)=C(C#N)[C@@H](c3ccc(N4CCCCC4)cc3)[C@@H]2C1, the IC50 is reported as 480 µM. In the case of CCN1CC[C@@]2(OC)OC(N)=C(C#N)[C@@H](c3ccc(OC)cc3)[C@@H]2C1, the IC50 is reported as 680 µM.
